Here are results for 2 compounds from publication PMC5866846 (Archives of Toxicology, 2017).

For data set [1], the system named is upcyte hepatocytes 653-03 2D6. The data set is described as follows: Tam metabolism in upcyte hepatocytes 653-03 2D6, metabolites in culture medium. Format: in vitro ADME, human. To be noted: cells incubated with 1 µM Tam up to 144 h. The protocol:
(§1) The medium was replaced every 2–3 days. […].
(§2) The culture medium was collected after 24, 48, 72, 96 and 144 h followed by metabolite measurements using HPLC-ESI-MS/MS.
(§3) Protein was precipitated by the addition of ACN containing 1% of acetic acid and the corresponding deuterated internal standards to the same volume of the sample followed by centrifugation at 20.000 g for 15 min at RT. […] Analytes were separated on a Zorbax Eclipse Plus C18 column (1.8 µm, 100 × 2.1 mm, Agilent technologies) and detected on a 6460 triple quadrupole mass spectrometer (Agilent technologies) in positive ESI MRM mode. Glucuronides of estrogen-like metabolites were detected separately via MS/MS-measurements in negative ESI MRM mode.
(§4) […]. […] […].

In another data set the test system is CYP3A4. The data set is described as follows: CYP3A4 activity in upcyte hepatocytes after treatment (probe substrate cocktail). To be noted: 72 h; for induction of CYP3A4 activity compared to DMSO control: 5 µM, parental and derived cell line. The protocol:
(§5) Cells were cultivated in hepatocyte culture medium at 37 °C and 5 °% CO2 in a humidified incubator. Before starting experiments, cells were cultivated in hepatocyte culture medium containing 0.5% (v/v) DMSO (Preculture medium) for 5 days (density of 0.8 × 10^4 cells/cm^2) and were subcultivated in high-performance medium containing 0.1% (v/v) DMSO (Metabolism conditioning medium) for 3–5 days (density of 1.6 × 10^5 cells/cm^2, confluence). The medium was replaced every 2–3 days.
(§6) In HLM and supersome™ incubations the formation rate is given as nmol µg^−1 min^−1 and fmol pmol^−1 min^−1, respectively, and was calculated as the mean ± SD. […] The intrinsic Clearance (Clint) was given as Vmax/Km ratio. […] Activity of CYP enzymes in induction assays is given as the fold-change (mean ± SD) compared to the corresponding DMSO-treated control. […] Gene expression patterns of treated cells are given as fold-change compared to the corresponding DMSO-treated control samples, as described above. […] In induction and inhibition experiments corresponding EC50 and IC50 values were calculated by nonlinear regression. In all experiments a level of probability (p) ≤ 0.05 for statistical testing was considered significant.
(§7) As control 0.05 % DMSO was used. The basal CYP activity and induction of CYP activity compared to the DMSO control were measured via HPLC-ESI-MS/MS.

The target of data set [2] is T1, CYP2C8 (Homo sapiens, UniProt P10632).
T1 sequence (P10632 1-490): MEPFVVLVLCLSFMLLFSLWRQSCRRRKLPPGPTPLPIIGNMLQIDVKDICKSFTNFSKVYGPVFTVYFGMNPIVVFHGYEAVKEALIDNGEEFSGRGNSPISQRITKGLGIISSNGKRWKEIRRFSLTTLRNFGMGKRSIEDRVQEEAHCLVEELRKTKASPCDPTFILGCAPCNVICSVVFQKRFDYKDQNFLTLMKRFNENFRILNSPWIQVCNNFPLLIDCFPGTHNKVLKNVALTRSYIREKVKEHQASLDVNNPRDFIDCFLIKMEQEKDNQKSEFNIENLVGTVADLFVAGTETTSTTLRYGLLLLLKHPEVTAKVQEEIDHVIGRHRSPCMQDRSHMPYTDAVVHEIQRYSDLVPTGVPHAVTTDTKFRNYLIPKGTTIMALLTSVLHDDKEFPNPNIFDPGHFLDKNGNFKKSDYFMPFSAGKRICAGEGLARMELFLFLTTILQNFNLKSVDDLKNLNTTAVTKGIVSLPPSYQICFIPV
In words: Inhibition of CYP2C8 activity in HLM. In kind it is in vitro ADME. To be noted: 200 nM to 10 µM, 10 min pre-incubation.

Data set [3] concerns the target T2, CYP2C9 (Homo sapiens, UniProt P11712). In words: Inhibition of CYP2C9 activity in HLM. Format: in vitro ADME. To be noted: human, human liver microsomes, 200 nM to 10 µM, 10 min pre-incubation. For orientation: Liver microsomes are vesicles of endoplasmic reticulum, rich in cytochrome P450 enzymes.
The target in data set [4] is T3, CYP2C19 (Homo sapiens, UniProt P33261). In words: Inhibition of CYP2C19 activity in HLM. In kind it is in vitro ADME. The conditions noted are these: human, human liver microsomes, 200 nM to 10 µM, 10 min pre-incubation.
T3 sequence (P33261 whole entry): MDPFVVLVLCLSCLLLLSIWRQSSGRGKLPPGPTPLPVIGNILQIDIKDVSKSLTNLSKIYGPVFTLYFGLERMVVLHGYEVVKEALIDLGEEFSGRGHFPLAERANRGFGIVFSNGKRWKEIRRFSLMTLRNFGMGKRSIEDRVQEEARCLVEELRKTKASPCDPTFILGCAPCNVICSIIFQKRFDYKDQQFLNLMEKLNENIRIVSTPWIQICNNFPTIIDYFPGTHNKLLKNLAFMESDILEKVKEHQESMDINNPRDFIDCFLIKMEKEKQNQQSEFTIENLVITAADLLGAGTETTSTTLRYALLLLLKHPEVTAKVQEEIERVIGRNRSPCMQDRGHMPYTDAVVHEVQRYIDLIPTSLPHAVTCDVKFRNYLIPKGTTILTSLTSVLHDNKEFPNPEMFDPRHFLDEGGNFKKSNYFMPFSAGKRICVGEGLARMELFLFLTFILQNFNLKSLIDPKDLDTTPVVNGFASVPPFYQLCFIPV
A further data set has as its system CYP3A4 gene expression. The data set is described as follows: CYP3A4 gene expression in upcyte hepatocytes (Fluidigm RT-PCR). The conditions noted are these: 5 µM, 72 h, both cell strains.
Description: Total RNA was isolated from cells using the Direct-zol™ RNA MiniPrep kit (Zymo Research Corp., Irvine, California). cDNA was synthesized using TaqMan Reverse Transcription Reagents (Life technologies, Applera GmbH, Darmstadt, Germany) and the expression of 25 genes representative of phase I and phase II drug metabolism and transport was quantified by Fluidigm’s BioMark HD high-throughput quantitative chip platform (Fluidigm Corporation, San Francisco, USA). For relative gene expression analysis, the delta-delta-Ct (ΔΔCt) method was used: the Ct values of the target mRNA were first normalized to those of the endogenous control glyceraldehyde-3-phosphate dehydrogenase (GAPDH) followed by dividing values of experimental samples by their corresponding DMSO-treated controls to calculate the x-fold changes of mRNA expression.
as §6, §7

In another data set the test system is CYP2A6 gene expression. In words: CYP2A6 gene expression in upcyte hepatocytes (Fluidigm RT-PCR). The conditions noted are these: 5 µM, 72 h, both cell strains. Format: cell-based, human. An excerpt:
(§8) Differences between induced and control samples were compared using Welch’s t-test (GraphPad Prism, version 5.04), when the fold-change was considered biologically relevant (1.5-fold increase or decrease in fold-changes) and corrected for multiple testing according to Bonferroni. […] An unpaired t-test assuming unequal variances was used for testing of differences in the expression patterns, when the fold-change was considered biologically relevant (1.5-fold increase or decrease in fold-changes) and corrected using Bonferroni adjustments.

In the next data set the test system is SLC10A1 gene expression. The data set is described as follows: SLC10A1 gene expression in upcyte hepatocytes (Fluidigm RT-PCR). Format: cell-based, human. The conditions noted are these: 5 µM, 72 h, both cell strains.
Description: as §8

For data set [5], the target named is T1, CYP2C8. In words: CYP2C8 activity in upcyte hepatocytes after treatment (probe substrate cocktail). Format: cell-based. The conditions noted are these: human. Also noted: host or cells: upcyte hepatocytes 653-03 and 653-03 #138 (653-03 2D6). On the procedure: as §5, §6, §7
A short description of data set [6]: Formation of Met E and Tam-Bis from precursors in pooled human liver microsomes with and without NADPH-regenerating system. In kind it is in vitro ADME. To be noted: DM-Tam, DDM-Tam, 50 µM, pooled HLM. On the procedure:
The reaction was started by adding a NADPH regenerating system (5 mM MgCl2, 5 mM glucose-6-phosphate, 0.5 mM NADP^+ and 10 U glucose-6-phosphate-dehydrogenase in 100 mM sodium phosphate buffer pH 7.4) to the samples and immediately put in a 37 °C water bath for 30 min. The reaction was stopped with the same volume of acetonitrile (ACN) containing 1% of acetic acid together with the corresponding deuterated internal standards. Regarding incubations with Supersomes™ containing UGTs, 5 µg of protein was incubated with 250 mM MgCl2 and 2.5 ng of alamethicin for 30 min on ice, followed by 10 min at 37 °C in a water bath. […] Metabolites were analyzed by HPLC-ESI-MS/MS.
Protein was precipitated by the addition of ACN containing 1% of acetic acid and the corresponding deuterated internal standards to the same volume of the sample followed by centrifugation at 20.000 g for 15 min at RT. […] Analytes were separated on a Zorbax Eclipse Plus C18 column (1.8 µm, 100 × 2.1 mm, Agilent technologies) and detected on a 6460 triple quadrupole mass spectrometer (Agilent technologies) in positive ESI MRM mode. Glucuronides of estrogen-like metabolites were detected separately via MS/MS-measurements in negative ESI MRM mode. […]

A short description of data set [7]: Formation kinetics of Tam-Bis, (Z)- and (E)-Met E in HLM with increasing substrate concentrations. Format: in vitro ADME, human. The conditions noted are these: substrate 1 to 50 µM, Michaelis-Menten. On the procedure: The reaction was started by adding a NADPH regenerating system (5 mM MgCl2, 5 mM glucose-6-phosphate, 0.5 mM NADP^+ and 10 U glucose-6-phosphate-dehydrogenase in 100 mM sodium phosphate buffer pH 7.4) to the samples and immediately put in a 37 °C water bath for 30 min. The reaction was stopped with the same volume of acetonitrile (ACN) containing 1% of acetic acid together with the corresponding deuterated internal standards. Regarding incubations with Supersomes™ containing UGTs, 5 µg of protein was incubated with 250 mM MgCl2 and 2.5 ng of alamethicin for 30 min on ice, followed by 10 min at 37 °C in a water bath. Subsequently, the Supersomes™ were incubated with 10 µM of substrates (Tam-Bis, (E)- and (Z)-Met E) and the glucuronidation was started by addition of 10 mM of uridine 5′-diphospho-glucuronic acid to the samples in a water bath at 37 °C for 30 min. The reaction was stopped as described above. Metabolites were analyzed by HPLC-ESI-MS/MS.
For the assessment of formation kinetics of Tam-Bis, (E)- and (Z)-Metabolite E, HLM were incubated with increasing substrate concentrations ranging from 1 to 50 µM as described above. As control for each concentration a sample without NADPH-regenerating system was prepared. […]

The subject of data set [8] is single CYP isoenzymes (Supersomes). The data set is described as follows: Formation of estrogen-like metabolites in Supersomes specific for single CYP isoenzymes. The conditions noted are these: 50 µM precursors. In kind it is in vitro ADME.
Description: Supersomes™ were obtained from Corning Incorporated, Wiesbaden, Germany, and were specific for CYP isoenzymes CYP1A1, 1A2, 2A6, 2B6, 2C8, 2C9, 2C19, 2D6, 3A4, 3A5 and 19A1. All Supersomes™ contained oxidoreductase. Cytochrome b5 was present in the Supersomes™ of CYP2A6, 2B6, 2C8, 2C9, 3A4 and 3A5. UDP-glucuronosyltransferases (UGT)containing Supersomes™ were specific for the following isoenzymes: 1A1, 1A2, 1A3, 1A4, 1A6, 1A7, 1A8, 1A9, 1A10, 2B4, 2B7, 2B10, 2B15 and 2B17.
The reaction was started by adding a NADPH regenerating system (5 mM MgCl2, 5 mM glucose-6-phosphate, 0.5 mM NADP^+ and 10 U glucose-6-phosphate-dehydrogenase in 100 mM sodium phosphate buffer pH 7.4) to the samples and immediately put in a 37 °C water bath for 30 min. The reaction was stopped with the same volume of acetonitrile (ACN) containing 1% of acetic acid together with the corresponding deuterated internal standards. […] Metabolites were analyzed by HPLC-ESI-MS/MS.
Protein was precipitated by the addition of ACN containing 1% of acetic acid and the corresponding deuterated internal standards to the same volume of the sample followed by centrifugation at 20.000 g for 15 min at RT. […] Glucuronides of estrogen-like metabolites were detected separately via MS/MS-measurements in negative ESI MRM mode.
Data set [9] relates to upcyte hepatocytes 653-03 and 653-03 2D6. In words: Tam metabolism in upcyte hepatocytes, cell strain not distinguished. Format: in vitro ADME, human. To be noted: 1 µM Tam, all time points. On the procedure:
as §1, §2, §3, §4

A further data set deals with CYP1A2. The data set is described as follows: CYP1A2 activity in upcyte hepatocytes after treatment (probe substrate cocktail). The conditions noted are these: human, EC50 of induction of CYP1A2 activity, 50 pM to 5 µM. On the procedure: as §5, §6, §7
For a further data set, the system named is CYP2B6. The data set is described as follows: CYP2B6 activity in upcyte hepatocytes after treatment (probe substrate cocktail). The conditions noted are these: human, probe bupropion (25 µM). The protocol:
as §5, §6, §7

The subject of another data set is estrogen receptor. Details: method as in Johnson et al. [1989]; Murphy et al. [1990]. The conditions noted are these: in vitro, estrogen-dependent breast cancer cell lines; ref Johnson et al. [1989]; Murphy et al. [1990]; cited from earlier work.
The target in data set [10] is T2, CYP2C9. In words: CYP2C9 activity in upcyte hepatocytes after treatment (probe substrate cocktail). Format: cell-based. Details: host or cells: upcyte hepatocytes 653-03 and 653-03 #138 (653-03 2D6). The conditions noted are these: 5 µM, 72 h. On the procedure: as §5, §6, §7
Data set [11] has as its target T3, CYP2C19. The data set is described as follows: CYP2C19 activity in upcyte hepatocytes after treatment (probe substrate cocktail). Also noted: host or cells: upcyte hepatocytes 653-03 and 653-03 #138 (653-03 2D6). The conditions noted are these: human, probe S-mephenytoin (100 µM), upcyte hepatocytes, 50 pM to 5 µM, read-out: EC50 of induction of CYP2C19 activity. In kind it is cell-based. On the procedure:
as §5, §6, §7

SMILES strings stand for the structures.

T2 sequence (P11712 whole entry): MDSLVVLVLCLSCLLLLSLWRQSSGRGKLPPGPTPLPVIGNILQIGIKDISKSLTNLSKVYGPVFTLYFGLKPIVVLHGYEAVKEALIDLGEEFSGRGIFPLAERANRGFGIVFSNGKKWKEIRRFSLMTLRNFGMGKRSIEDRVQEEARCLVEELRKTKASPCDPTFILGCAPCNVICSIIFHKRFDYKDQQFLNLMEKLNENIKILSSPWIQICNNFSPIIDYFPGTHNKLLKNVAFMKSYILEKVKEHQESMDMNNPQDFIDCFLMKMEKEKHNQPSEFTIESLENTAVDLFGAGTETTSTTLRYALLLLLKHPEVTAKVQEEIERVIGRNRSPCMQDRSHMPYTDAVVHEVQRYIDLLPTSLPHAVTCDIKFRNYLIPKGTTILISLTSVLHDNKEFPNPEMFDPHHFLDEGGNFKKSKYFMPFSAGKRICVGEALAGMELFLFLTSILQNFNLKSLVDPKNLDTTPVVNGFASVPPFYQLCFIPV

As usually defined, the IC50 is the concentration that inhibits the measured activity by half. Read a high IC50 as lower potency. The inhibition is the drop in the measured response relative to a control, in per cent. A higher inhibition goes with strong suppression. As to `CC/C(=C(\c1ccc(O)cc1)c1ccc(OCCN(C)C)cc1)c1ccccc1` [4OH-Tam, (Z)-4-Hydroxytamoxifen], the “concentration in the supernatant of 653-03 2D6 cells relative to parental cells” value in data set [1] was “up to 20 times”. In the data set with CYP3A4, the “induction of CYP3A4 activity compared to DMSO control” value is “up to 2.1 fold”. Moreover, at CYP2C8 [2], the IC50 is > 10 µM and the “IC50 of CYP2C8 activity” value was “only minor inhibition”. Besides, on CYP2C9 [3], the IC50 at 15 min was > 10 µM. For the same compound, the half-maximal inhibitory concentration (IC50) at 15 min on CYP2C19 [4] is > 10 µM. Besides, the “CYP3A4 gene expression, induction vs DMSO control” value in the data set with CYP3A4 gene expression is listed as “up to 5.6 fold”. Moreover, the “CYP2A6 gene expression, downregulation” value in the data set with CYP2A6 gene expression was “up to twofold”. For the same compound, the “SLC10A1 gene expression, downregulation (fold lower)” value in the data set on SLC10A1 gene expression is “up to twofold”. Further, the inhibition at 72 h, 5 µM on CYP2C8 [5] (upcyte hepatocytes 653-03 and 653-03 2D6, probe amodiaquine 5 µM, 5 µM, both cell lines) was ≤ 90%.

By Km is commonly meant the concentration of substrate that gives half-maximal velocity. As usually defined, the EC50 is the concentration needed to bring the measured effect to its halfway point. Consider `CCC(=C(c1ccccc1)c1ccc(O)cc1)c1ccccc1` [(E)-Met E, 4-[1,2-diphenylbut-1-en-1-yl]phenol], for which the “formation rate of the (E)-isomer compared to (Z)-Met E” value in [6] is “approximately 10%”. In addition, the “V max, Bisphenol formation” value in [7] is 8.1 pmol/mg/min. Besides, the Km in data set [7] (read-out: Km, Bisphenol formation) stood at 10.4 µM. Also, in data set [8], the “formation rates lower than those of the (Z)-isomer” value is on record as “approximately 10 times”. Further, the “concentration of the (E)-isomer relative to (Z)-Met E” value in data set [9] is recorded as “about 10%”. Moreover, the EC50 at 72 h in the data set on CYP1A2 is > 5 µM; with CYP2B6, > 5 µM; with CYP3A4 (human, probe atorvastatin (35 µM), EC50 of induction of CYP3A4 activity, upcyte hepatocytes, 50 pM to 5 µM), 0.277 µM; on CYP2C8 [5] (probe amodiaquine (5 µM), upcyte hepatocytes, 50 pM to 5 µM, read-out: EC50 of induction of CYP2C8 activity), > 5 µM; at CYP2C19 [11] it was > 5 µM. Besides, the “induction of CYP3A4 activity compared to DMSO control” value with CYP3A4 is on record as “weakly induced”. The “CYP3A4 gene expression, induction vs DMSO control” value with CYP3A4 gene expression is reported as “up to 5.6 fold”. Further, in the data set on estrogen receptor, the “agonism regarding estrogen-regulated mRNA expression” value was “full agonists”. For the same compound, at CYP2C9 [10], the “induction of CYP2C9 activity” value is recorded as “weakly induced”.
